Measured values reported in ChEMBL document CHEMBL1938240, “Enzymatic transformation of caffeic acid with enhanced cyclooxygenase-2 inhibitory activity” (Bioorg Med Chem Lett, 2012).

Biological target: T1, Prostaglandin G/H synthase 2 (Homo sapiens, UniProt P35354)
T1 sequence (P35354 whole entry): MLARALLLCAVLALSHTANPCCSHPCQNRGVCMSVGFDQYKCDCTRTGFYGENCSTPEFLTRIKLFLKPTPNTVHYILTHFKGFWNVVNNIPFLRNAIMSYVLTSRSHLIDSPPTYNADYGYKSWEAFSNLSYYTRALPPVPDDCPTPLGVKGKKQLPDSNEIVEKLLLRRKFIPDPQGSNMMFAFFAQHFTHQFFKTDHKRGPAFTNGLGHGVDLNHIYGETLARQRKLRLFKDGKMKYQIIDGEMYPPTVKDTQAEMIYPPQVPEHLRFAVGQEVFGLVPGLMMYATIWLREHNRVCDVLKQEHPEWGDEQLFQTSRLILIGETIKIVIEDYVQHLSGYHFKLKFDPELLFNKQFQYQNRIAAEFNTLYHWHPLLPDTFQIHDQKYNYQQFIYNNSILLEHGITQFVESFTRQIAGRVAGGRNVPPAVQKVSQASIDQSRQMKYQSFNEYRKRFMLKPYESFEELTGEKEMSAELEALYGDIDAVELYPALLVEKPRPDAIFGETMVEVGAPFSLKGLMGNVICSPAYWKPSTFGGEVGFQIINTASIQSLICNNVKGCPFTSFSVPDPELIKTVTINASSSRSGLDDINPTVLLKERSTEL
Test: Inhibition of COX2 assessed as inhibition of PGE2 production using arachidonic acid as substrate after 10 mins by ELISA

Row | IC50 [µM] | SMILES
1 | 7.5 | O=C(O)/C=C/c1ccc2c(c1)O[C@H](c1cc(O)cc(O)c1)[C@H](C(=O)O)O2 [CAFFEICINIC ACID]
2 | 42.6 | O=C1O[C@@H](c2ccc(O)c(O)c2)[C@H](C(=O)O)/C1=C\c1ccc(O)c(O)c1 [PHELLINSIN A]
3 | 9.8 | O=C(O)/C=C/C12C=C(O)C(=O)C=C1C(=O)C1=Cc3cc(O)c(O)cc3O[C@@H](c3ccc(O)c(O)c3)[C@@H]12 (relative stereo)
4 | 52.6 | O=C(O)/C=C/c1ccc2c(c1)O[C@@H](C(=O)O)[C@@H](c1ccc(O)c(O)c1)O2 (relative stereo)
